Source: patent US20250099448A1, “HETEROCYCLIC COMPOUNDS” (Hoffmann-La Roche Inc., priority 2022, published 2025)

The molecules below were run against T1, MAGL protein (Homo sapiens, UniProt Q99685) (assay: 2-AG assay: MAGL inhibitory activity by hydrolysis of 2-arachidonoylglycerol to arachidonic acid, followed by mass spectrometry). Settings: 8 μM 2-arachidonoylglycerol, 15 min preincubation, 30 min reaction at RT, RapidFire MS readout.
T1 sequence (Q99685 1-303): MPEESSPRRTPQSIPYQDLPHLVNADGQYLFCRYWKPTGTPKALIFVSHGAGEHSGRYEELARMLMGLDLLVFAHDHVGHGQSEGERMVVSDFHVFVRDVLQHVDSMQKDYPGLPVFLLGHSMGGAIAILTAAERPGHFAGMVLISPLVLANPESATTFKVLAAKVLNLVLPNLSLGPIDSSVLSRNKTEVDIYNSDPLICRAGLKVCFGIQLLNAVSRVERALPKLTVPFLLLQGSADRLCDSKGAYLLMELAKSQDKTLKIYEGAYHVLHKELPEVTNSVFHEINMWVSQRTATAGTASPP
Assay type: biochemical
How it was run: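 MAGL was preincubated 15 min at RT with compound (12.5 to […], 3-fold steps) in 50 mM TRIS, 1 mM EDTA, 0.01% Tween-20, 2.5% DMSO. The reaction ran 30 min at RT with 8 μM 2-AG. Arachidonic acid was quantified by RapidFire SPE-MS/MS against a d8-arachidonic acid internal standard.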

SMILES	IC50 [nM]
Cc1cc(C(F)(F)F)nn1-c1ccc(C2CN(C(=O)N3CC4(CC(c5nnc(C6CC6)[nH]5)C4)C3)C2)cc1 [compound 278]	0.3
N#Cc1cc(OC2CC3(C2)CN(C(=O)N2CC4(CC(c5nc(C6CC6)n[nH]5)C4)C2)C3)ccc1C(F)(F)F [compound 499]	3.46
Cn1ncc(CN2CC3(C2)CN(C(=O)N2CC4(CC(c5nc(C6CC6)n[nH]5)C4)C2)C3)c1S(N)(=O)=O [compound 580]	679
CS(=O)(=O)c1ccc(CC2CC3(C2)CN(C(=O)N2CC4(CC(c5nnc(C6(O)CC6)[nH]5)C4)C2)C3)cc1 [compound 13]	4.72
O=C(N1CC2(CC(Cc3cnc(C(F)(F)F)nc3)C2)C1)N1CC2(CC(c3nnc(C4(O)CC4)[nH]3)C2)C1 [compound 21]	5.33
O=C(N1CC2(CCN(Cc3cccc(S(=O)(=O)C(F)(F)F)c3)CC2)C1)N1CC2(CC(c3nnc(C4CC4)[nH]3)C2)C1 [compound 180]	0.91
COc1cc(C(F)(F)F)ccc1CNC1CN(C(=O)N2CC3(CC(c4nnc(C5CC5)[nH]4)C3)C2)C1 [compound 197]	15.6
O=C(N1CC2(CC(Cc3nnc(C4(C(F)(F)F)CC4)o3)C2)C1)N1CC2(CC(c3nnc(C4CC4)[nH]3)C2)C1 [compound 862]	1.57
Cn1nc(C2CC2)cc1CN1CC2(C1)CN(C(=O)N1CC3(CC(c4nc(C5CC5)n[nH]4)C3)C1)C2 [compound 623]	12.6
N#Cc1cc(C(F)(F)F)ncc1CC1CC2(C1)CN(C(=O)N1CC3(CC(c4nnc(C5(O)CC5)[nH]4)C3)C1)C2 [compound 433]	0.9
O=C(N1CC(Oc2ccc(C(F)(F)F)nn2)C1)N1CC2(CC(c3nnc(C4CC4)[nH]3)C2)C1 [compound 314]	4.76
N#Cc1cc(CC2CC3(C2)CN(C(=O)N2CC4(CC(c5nc(C6CC(F)(F)C6)n[nH]5)C4)C2)C3)ccc1C(F)(F)F [compound 547]	5.86
CS(=O)(=O)c1ccc(CC2CCC3(C2)CN(C(=O)N2CC4(CC(c5nnc(C6CC6)[nH]5)C4)C2)C3)cc1C(F)(F)F (stereo not drawn) [compound 153]	0.27
O=C(N1CC2(CC(c3nc(C4CC4)n[nH]3)C2)C1)N1CC2(CN(Cc3nc[nH]c3C(F)(F)F)C2)C1 [compound 795]	33.3
COC(=O)C1(c2ccc(C3CN(C(=O)N4CC5(CC(c6nnc(C7CC7)[nH]6)C5)C4)C3)cc2)CC1 [compound 372]	0.57
CC(C)(C)Cc1nnc(C23CC(C4CCN(C(=O)N5CC6(CC(c7nc(C8CC8)n[nH]7)C6)C5)CC4)(C2)C3)o1 [compound 439]	4.22
O=C(N1CC2(CC(c3nc(C4CC4)n[nH]3)C2)C1)N1CC2(CN(Cc3nnn(CC(F)(F)F)n3)C2)C1 [compound 546]	140
O=C(N1CC2(CC(Cc3cnc(C(F)(F)F)cn3)C2)C1)N1CC2(CC(c3nc(C(F)(F)F)n[nH]3)C2)C1 [compound 788]	22.5
O=C(N1CC2(CC(c3nnc(C4CC4)[nH]3)C2)C1)N1CC2(CN(Cc3ccc(C(F)(F)F)nn3)C2)C1 [compound 160]	61.3

SMILES	IC50 [nM]
N=S(=O)(c1ccc(CC2CC3(C2)CN(C(=O)N2CC4(CC(c5nc(C6CC6)n[nH]5)C4)C2)C3)c(F)c1)C(F)(F)F (stereo not drawn) [compound 849]	0.07
O=C(N1CC2(CC(Cn3cnc(C4(C(F)(F)F)CC4)n3)C2)C1)N1CC2(CC(c3nc(C4CC4)n[nH]3)C2)C1 [compound 787]	1.2
O=C(N1CC(C23CC(c4ccc(OC(F)(F)F)cc4)(C2)C3)C1)N1CC2(CC(c3nc(C4(O)CC4)n[nH]3)C2)C1 [compound 551]	0.18
O=C(N1CC(n2cc(OCC(F)(F)F)cn2)C1)N1CC2(CC(c3nnc(C4CC4)[nH]3)C2)C1 [compound 207]	60.3
O=C(N1CC2(CC(Oc3cnc(C(F)(F)F)cn3)C2)C1)N1CC2(CC(c3nnc(C4CC4)[nH]3)C2)C1 [compound 75]	5.55
O=C(N1CC2(CC(Oc3ccc(Cl)cn3)C2)C1)N1CC2(CC(c3nc(C4CC4)n[nH]3)C2)C1 [compound 619]	0.79
CS(=O)(=O)c1cc(OC(F)(F)F)ccc1OCC1CCN(C(=O)N2CC3(CC(c4nc(C5(O)CC5)n[nH]4)C3)C2)CC1 [Example 923]	731
O=C(N1CC2(CCC(Cc3cnc(C(F)(F)F)cn3)CC2)C1)N1CC2(CC(c3nnc(C4CC4)[nH]3)C2)C1 [compound 136]	0.57
N=S(=O)(c1cc(F)cc(CC2CC3(C2)CN(C(=O)N2CC4(CC(c5nc(C6CC6)n[nH]5)C4)C2)C3)c1)C(F)(F)F (stereo not drawn) [compound 649]	0.12
O=C(N1CC(C23CC(c4ccc(S(=O)(=O)C(F)(F)F)cc4)(C2)C3)C1)N1CC2(CC(c3nc(C4CC4)n[nH]3)C2)C1 [compound 540]	0.05
O=C(N1CC2(CC(NCc3ccc(C(F)(F)F)cc3F)C2)C1)N1CC2(CC(c3nnc(C4CC4)[nH]3)C2)C1 [compound 185]	1.65
CS(=O)(=O)c1ccc(CC2CC3(C2)CN(C(=O)N2CC4(CC(c5nnc(C6CC6)[nH]5)C4)C2)C3)nc1 [compound 119]	6.52
O=C(N1CC(C23CC(c4ccc(F)cc4)(C2)C3)C1)N1CC2(CC(c3nc(C4CC4)n[nH]3)C2)C1 [compound 773]	1.31
O=C(N1CC2(CC(c3nnc(C4CC4)[nH]3)C2)C1)N1CC2(C1)CN(S(=O)(=O)c1ccc(F)cc1C(F)(F)F)C2 [compound 98]	1.92
Cc1nc(C)c(CN2CC3(C2)CN(C(=O)N2CC4(CC(c5nnc(C6CC6)[nH]5)C4)C2)C3)s1 [compound 877]	15.2
O=C(N1CC2(CC(c3nc(C4CC4)n[nH]3)C2)C1)N1CC2(CN(Cc3nc(C4CC4)ns3)C2)C1 [compound 637]	7.44
O=C(N1CC(OCc2ccc(S(=O)(=O)C(F)(F)F)cc2F)C1)N1CC2(CC(c3nc(C4CC(F)(F)C4)n[nH]3)C2)C1 [compound 502]	262
CC(C)(C)Cc1nnc(C23CC(C4CN(C(=O)N5CC6(CC(c7nc(C8CC8)n[nH]7)C6)C5)C4)(C2)C3)s1 [compound 581]	2.22
O=C(N1CC2(CCC(Cc3ccc(Cl)cn3)CC2)C1)N1CC2(CC(c3nc(C4CC(F)(F)C4)n[nH]3)C2)C1 [compound 756]	98.5

SMILES	IC50 [nM]
Cn1ncc(C(F)(F)F)c1CN1CC2(C1)CN(C(=O)N1CC3(CC(c4nc(C5CC(F)(F)C5)n[nH]4)C3)C1)C2 [compound 658]	412
O=C(N1CC2(CC(c3nc(C4CC4)n[nH]3)C2)C1)N1CC2(CN(Cc3ccc(OCC(F)(F)F)nc3)C2)C1 [compound 963]	3.95
O=C(N1CC(NCc2ccc(F)cc2C(F)(F)F)C1)N1CC2(CC(c3nnc(C4CC4)[nH]3)C2)C1 [compound 196]	111
O=C(N1CC2(CC(c3nnc(C4(O)CC4)[nH]3)C2)C1)N1CC2(CN(Cc3ccc(F)cc3F)C2)C1 [compound 157]	15.8
O=C(N1CC2(CC(Cc3cnc(C(F)(F)F)nc3)C2)C1)N1CC2(CC(c3nc(C4(F)CC4)n[nH]3)C2)C1 [compound 565]	1.04
O=C(N1CCC(CNS(=O)(=O)c2ccc(Cl)cc2)CC1)N1CC2(CC(c3nnc(C4CC4)[nH]3)C2)C1 [compound 252]	68.3
O=C(N1CC2(CC(Cc3ccc(S(=O)(=O)C(F)(F)F)cc3)C2)C1)N1CC2(CC(c3nc(C4COC4)n[nH]3)C2)C1 [compound 755]	0.61
CC(C)(C)c1c[nH]c(CN2CC3(C2)CN(C(=O)N2CC4(CC(c5nc(C6CC6)n[nH]5)C4)C2)C3)n1 [compound 659]	40.9
O=C(N1CC2(CCN(Cc3ccc(C(F)(F)F)cn3)CC2)C1)N1CC2(CC(c3nnc(C4CC4)[nH]3)C2)C1 [compound 178]	1.8
N#Cc1ccc(CC2CC3(C2)CN(C(=O)N2CC4(CC(c5nc(C6CC(F)(F)C6)n[nH]5)C4)C2)C3)c(F)c1 [compound 486]	10.6
COc1cc(COC2CCN(C(=O)N3CC4(CC(c5nc(C6CC6)n[nH]5)C4)C3)CC2)ccc1C(N)=O [Example 980, 4-[[1-[6-(3-cyclopropyl-1H-1,2,4-triazol-5-yl)-2-azaspiro[3.3]heptane-2-carbonyl]-4-piperidyl]oxymethyl]-2-methoxy-benzamide]	2520
O=C(N1CCC(c2nn(C[C@H](O)C(F)(F)F)c3ccc(Cl)cc23)CC1)N1CC2(CC(c3nnc(C4CC4)[nH]3)C2)C1 [Example 864]	14.3
COC(=O)c1ccccc1-c1ccc(C2CN(C(=O)N3CC4(CC(c5nnc(C6CC6)[nH]5)C4)C3)C2)cc1 [compound 339]	0.16
O=C(N1CC2(CC(Cc3ccc(F)cc3C(F)(F)F)C2)C1)N1CC2(CC(c3nc(C4CC(F)(F)C4)n[nH]3)C2)C1 [compound 468]	2.5
COc1cc(Cl)ccc1CN(C)C1CCN(C(=O)N2CC3(CC(c4nnc(C5CC5)[nH]4)C3)C2)CC1 [Example 893, [4-[(4-chloro-2-methoxy-benzyl)-methyl-amino]piperidino]-[6-(5-cyclopropyl-4H-1,2,4-triazol-3-yl)-2-azaspiro[3.3]heptan-2-yl]methanone]	95.2
O=C(N1CCC(NS(=O)(=O)c2ccc(F)cc2)CC1)N1CC2(CC(c3nnc(C4CC4)[nH]3)C2)C1 [compound 249]	1300
CC(C)(C)c1ncc(CN2CC3(C2)CN(C(=O)N2CC4(CC(c5nc(C6CC6)n[nH]5)C4)C2)C3)s1 [compound 415]	4.43
O=C(N1CC(C23CC(c4ccc(S(=O)(=O)C(F)(F)F)cc4)(C2)C3)C1)N1CC2(CC(c3nc(C4(O)CC4)n[nH]3)C2)C1 [compound 419]	0.5
COc1cc(COC2CCN(C(=O)N3CC4(CC(c5nc(C6CC6)n[nH]5)C4)C3)CC2)ccc1C#N [Example 904]	159
